{
  "source": "patent EP0148431A1",
  "about": "“Benzimidazoles, their preparation, and medicaments containing these compounds” (Dr. Karl Thomae GmbH, priority 1983, dated 1985)",
  "system": "narkotisierten Katze",
  "conditions": "anaesthetised cats (pentobarbital sodium 40 mg/kg i.p.), mean of at least 3 cats",
  "note": "Where two headings read alike, the source gives them in different places.",
  "experimental": "Beispielsweise wurden die Verbindungen • A = 2-(2-Methoxy-4-methylsulfonyl-phenyl)-5-cyano-benzimidazol und • B = 2-(2-Methoxy-4-propargyloxy-phenyl)-5-cyano-benzimidazol auf ihre biologischen Eigenschaften wie folgt untersucht: • Bestimmung der Blutdruckwirkung und der positiv inotropen Wirkung an der narkotisierten Katze\nDie Untersuchungen wurden an Katzen durchgeführt, die mit Pentobarbital-Natrium (40 mg/kg i.p.) narkotisiert waren. Die Tiere atmeten spontan. Der arterielle Blutdruck wurde in der Aorta abdominalis mit einem Statham-Druckwandler (P 23 Dc) gemessen. Für die Erfassung der positiv inotropen Wirkung wurde mit einem Kathetertipmanometer (Millar PC-350 A) der Druck in der linken Herzkammer gemessen. Daraus wurde der Kontraktilitätsparameter d^p/dtmax mittels eines Analogdifferenzierers gewonnen. Die zu untersuchenden Substanzen wurden in eine Vena femoralis injiziert. Als Lösungsmittel diente Polydiol 200. Jede Substanz wurde an mindestens 3 Katzen geprüft.",
  "data": [
    {"smiles": "COc1cc(S(C)(=O)=O)ccc1-c1nc2ccc(C#N)cc2[nH]1", "note": "[A, 2-(2-Methoxy-4-methylsulfonyl-phenyl)-5-cyano-benzimidazol]", "values": [
      {"measurement": "Zunahme von dp/dtmax in %", "setting": "0,2 mg/kg i.v.", "result": 51, "unit": "%"},
      {"measurement": "Zunahme von dp/dtmax in %", "setting": "0,6 mg/kg i.v.", "result": 96, "unit": "%"},
      {"measurement": "Zunahme von dp/dtmax in %", "setting": "2,0 mg/kg i.v.", "result": 79, "unit": "%"}
    ]},
    {"smiles": "C#CCOc1ccc(-c2nc3ccc(C#N)cc3[nH]2)c(OC)c1", "note": "[B, 2-(2-Methoxy-4-propargyloxy-phenyl)-5-cyano-benzimidazol]", "values": [
      {"measurement": "Zunahme von dp/dtmax in %", "setting": "0,2 mg/kg i.v.", "result": 33, "unit": "%"},
      {"measurement": "Zunahme von dp/dtmax in %", "setting": "0,6 mg/kg i.v.", "result": 48, "unit": "%"},
      {"measurement": "Zunahme von dp/dtmax in %", "setting": "2,0 mg/kg i.v.", "result": 85, "unit": "%"}
    ]}
  ]
}
